Assay results published in US11261189B2, “Substituted 2,4 diamino-quinoline as new medicament for fibrosis, autophagy and cathepsins B (CTSB), L (CTSL) and D (CTSD) related diseases” (Genoscience Pharma, priority 2018, dated 2022).

Tests used:
[1] = test system: diethyl nitrosamine (DEN) cirrhotic rat model of liver fibrosis; assay: DEN induced cirrhosis in rats, study 2: Sirius red quantification of liver fibrosis; assay type: in vivo
Method: A second in vivo experiment, with the same diethyl nitrosamine (DEN) cirrhotic rat animal model of liver fibrosis, was performed including compound 2-2 (base form of compound 2-3) with discontinued oral dosing schedule and compound 5-3 with daily oral exposure. Compounds 2-2 and 5-3 were administered p.o. by gavage (oral gavage) once daily during 7 weeks.
Rats were treated with DEN for 13 weeks (intra-peritoneal injections (i.p.) of 50 mg/kg/week) and then treated according to the Table 10 dosage schedule during 7 weeks. At the end of the study, all animals were sacrificed using CO2 and rat livers were collected for analysis. The quantification of the liver fibrotic tissue was evaluated by Sirius red staining of rat liver sections.
Group 1 contained 6 animals which were daily dosed (q.d.) by oral gavage (per os, p.o.) with the vehicle during 7 weeks.
Group 2 contained 8 animals and the corresponding animals were daily dosed (q.d.) by oral gavage (per os, p.o.) with compound 2-2 during 4 weeks at 20 mg/kg/day and then during 3 weeks at 20 mg/kg every 2 days (q.o.d.: quaque altera die, one day treated, on day untreated).
Group 3 contained 8 animals and the corresponding animals were daily dosed (q.d.) by oral gavage (per os, p.o.) with compound 2-2 during 3 weeks at 20 mg/kg/day, then 2 weeks of treatment free period, and were then daily dosed (q.d.) by oral gavage (per os, p.o.) with compound 2-2 during 2 weeks at 20 mg/kg/day.
Group 4 contained 8 animals and the corresponding animals were daily dosed (q.d.) by oral gavage (per os, p.o.) with compound 5-3 during 4 weeks at 20 mg/kg/day, and were then daily dosed (q.d.) by oral gavage (per os, p.o.) with compound 5-3 during 3 weeks at 15 mg/kg/day.
Compound 2-2 and 5-3 were formulated in water for injection acidified with hydrochloric acid to pH 4.

[2] = test system: autophagy flux (LC3-II) in RBE cell line; assay: Autophagy flux, LC3-II immunoblot with/without Bafilomycin, RBE cell line; assay type: cell-based; conditions: 24 hours of treatment
Method: The capacity of compound 2-2 to modulate the cellular autophagy processes was also evaluated in the intrahepatic cholangiocarcinoma cell line RBE.
The RBE cell line was maintained in RPMI (Roswell Park Memorial Institute) 1640 (Cat #L0498-500, Dutscher) containing 1% penicillin-streptomycin (Cat #P06-07100, Dutscher) and 10% FBS (Cat #SV30160.03C, Dutscher). RBE Cells line were cultured at 37° C. with 5% CO2.
The day before the experiment, 6-well plates with 125,000 cells in 1.8 mL of medium per well were prepared.
Compound 2-2 was dissolved with filtrated DMSO to make a 10 mM stock solution and serial working solutions (10× solutions) at 9 μM, 18 μM and 36 μM were prepared with the diluent (=culture medium with 0.12% DMSO) to maintain a constant percentage of DMSO. Bafilomycin [CAS 88899-55-2] (Cat #B1793-10UG, Sigma) was dissolved with DMSO to make a 160.6 μM stock solution and a working solution (200× solution) was prepared with the culture medium at 20.1 μM. A “Baf diluent” solution corresponding to the dilution of DMSO in the Bafilomycin 200× solution (culture medium with 12.5% DMSO) is also prepared. […]
After 24 hours of cell line treatment, the medium was removed from each well. […] Total protein concentration was assessed using the BCA reagent (Cat #23227, ThermoFischer) and cellular lysates were stored at −80° C. until western-blot analysis. […]

Compound: CC(C)(C)NC1CCN(c2cc(NCc3ccc(Cl)cc3)nc3ccccc23)CC1 [2-2, 2-(4-chlorobenzylamino)-4-(4-tert-butylaminopiperidin-1-yl)-quinoline]
- reduction of the level of collagen fibers deposition (Sirius red) compared to the control group ([1]; group 2 (20 qd/qod): 20 mg/kg p.o. q.d. 4 weeks then q.o.d. 3 weeks, after 13 weeks DEN, p=0.04): 23%
- reduction of the level of collagen fibers deposition (Sirius red) compared to the control group ([1]; group 3 (20 3WON/2WOFF/2WON): 20 mg/kg p.o. q.d. 3 weeks, 2 weeks off, q.d. 2 weeks, p=0.01): 29%
- accumulation of the LC3-II form [2]: significantly induced a dose-dependent accumulation of the LC3-II form
- autophagic flux (LC3-II Baf+/Baf− ratio) [2]: induced an inhibition of the autophagic flux
